Here are results for 17 molecules from publication PMC6095594, “Pre-clinical evaluation of quinoxaline-derived chalcones in tuberculosis” (PLoS ONE, 2018).

Series [1] has as its system M. tuberculosis H37Rv strain. Put plainly: microbe, parasite or virus in culture. In kind it is cell-based.
The subject of series [2] is M. tuberculosis pan-susceptible clinical isolate CDCT-28. Put plainly: microbe, parasite or virus in culture. In kind it is cell-based. The following applies: Mycobacterium tuberculosis.
The test system of another series is S. typhimurium TA100. Put plainly: Salmonella/microsome mutagenicity test. The method, then:
(§1) Salmonella typhimurium strains TA98, TA97a, TA100, TA1535, and TA102 were provided by MOLTOX® (Molecular Toxicology Inc. USA). Mutagenicity was assayed according to the pre-incubation procedure following the recommendation described in Mortelmans and Zieger (2000). […] Briefly, 100 μL of test bacterial cultures (1–2 x 10^9 cells/mL) were incubated at 37 °C with different concentrations of N9 (10–400 μg/plate) in the presence or absence of S9 mix, for 20 min, without shaking. […] Plates were incubated in the dark at 37 °C for 48 h before counting the revertant colonies. Assays were repeated twice and the plating for each concentration was conducted in triplicate. Data were evaluated by one-way analysis of variance (ANOVA), followed by Dunnett's post-test, using GraphPad Prism 5.0 (GraphPad, San Diego, CA, USA).

For a further series, the system named is S. typhimurium TA1535. Put plainly: Salmonella/microsome mutagenicity test. As to the method: as §1
For series [3], the system named is M. tuberculosis H37Rv strain. Further details: method as in Abbadi, 2018. The following applies: ref Abbadi, 2018; cited from earlier work.
In series [4] the test system is M. tuberculosis pan-susceptible clinical isolate CDCT-28. The following applies: cited from earlier work.
Series [5] relates to M. tuberculosis pNIP::control. Put plainly: microbe, parasite or virus in culture. In kind it is cell-based. The settings on record: Mycobacterium tuberculosis; pNIP::control (empty vector).
Series [6] has as its system M. tuberculosis pNIP::KatG(WT). Put plainly: microbe, parasite or virus in culture. The class given is cell-based. The settings on record: Mycobacterium tuberculosis.
In a further series the test system is M. tuberculosis H37Rv. Nature of the series: Checkerboard assay, two-drug combination with REMA readout. In kind it is cell-based, Mycobacterium tuberculosis. The following applies: for MIC: Mycobacterium tuberculosis, read-out: MIC Alone, checkerboard, drug alone, three independent experiments.
The subject of a further series is S. typhimurium TA102. Put plainly: Salmonella/microsome mutagenicity test. The following applies: TA102, +S9, positive control 5 μg/plate. As to the method:
(§2) Salmonella typhimurium strains TA98, TA97a, TA100, TA1535, and TA102 were provided by MOLTOX® (Molecular Toxicology Inc. USA). Mutagenicity was assayed according to the pre-incubation procedure following the recommendation described in Mortelmans and Zieger (2000). […] Briefly, 100 μL of test bacterial cultures (1–2 x 10^9 cells/mL) were incubated at 37 °C with different concentrations of N9 (10–400 μg/plate) in the presence or absence of S9 mix, for 20 min, without shaking. […] 2-aminoanthracene (2-AA, 5 μg/plate) was used as positive control for all strains in the presence of metabolic activation (with S9 mix). […] Plates were incubated in the dark at 37 °C for 48 h before counting the revertant colonies. Assays were repeated twice and the plating for each concentration was conducted in triplicate. Data were evaluated by one-way analysis of variance (ANOVA), followed by Dunnett's post-test, using GraphPad Prism 5.0 (GraphPad, San Diego, CA, USA).

A further series concerns S. typhimurium TA97a. Nature of the series: Salmonella/microsome mutagenicity test. The following applies: +S9, positive control 5 μg/plate. As to the method:
as §2

Another series has as its system S. typhimurium TA98. Put plainly: Salmonella/microsome mutagenicity test. The settings on record: TA98, +S9, positive control 5 μg/plate. As to the method:
as §2

Setting [7] is: Mycobacterium tuberculosis, H37RV, read-out: MIC.
Where [8] appears, read: TA100, -S9, positive control 1 μg/plate.
Where [9] appears, read: TA1535, -S9, positive control 1 μg/plate.
[10] abbreviates: TA100, +S9, positive control 5 μg/plate.
[11] abbreviates: TA1535, +S9, positive control 5 μg/plate.

Values after ≈ are worked out from the molar mass of the structure shown. Where two headings read alike, the source gives them in different places.

Take `N#Cc1cccc(C(=O)/C=C/c2ccc3nccnc3c2)c1` [N34]: the MIC in [1] (setting [7]) is over 25 µg/mL.

Regarding `COc1cc(C(=O)/C=C/c2ccc3nccnc3c2)cc(OC)c1OC` [N15], the MIC was 6.25 µg/mL (≈ 17.8 µM) in [1] (H37Rv), 3.13 to 12.5 µg/mL (≈ 8.93 to 35.7 µM) in series [1] (setting [7]) and 3.13 µg/mL (≈ 8.93 µM) in series [2].

For the molecule `[N-]=[N+]=[N-].[Na+]` [NaN3, sodium azide, reference compound], in the series with S. typhimurium TA100 (setting [8]), the “MI: mutagenic index” value was determined as 6.03 and the Number of revertants/plate worked out at 695.5±40.3 Rev/plate. Besides, in the series on S. typhimurium TA1535 (setting [9]), the “MI: mutagenic index” value was found to be 100.0 and the Number of revertants/plate is 1133.0±179.6 Rev/plate.

In the case of `COc1cccc(C(=O)/C=C/c2ccc3nccnc3c2)c1` [N23], the MIC was 5 µg/mL (≈ 17.2 µM) in [1] (H37Rv), 3.13 to 12.5 µg/mL (≈ 10.8 to 43.1 µM) in series [1] (setting [7]) and 2.5 µg/mL (≈ 8.61 µM) in [2].

Turning to `COc1cc(OC)c(C(=O)/C=C/c2ccc3nccnc3c2)cc1OC` [N17], the MIC in [1] (setting [7]) was over 25 µg/mL.

As to `CO[C@H]1/C=C/O[C@@]2(C)Oc3c(C)c(O)c4c(O)c(c(/C=N/N5CCN(C)CC5)c(O)c4c3C2=O)NC(=O)/C(C)=C\C=C\[C@H](C)[C@H](O)[C@@H](C)[C@@H](O)[C@@H](C)[C@H](OC(C)=O)[C@@H]1C` [RIF, Rifampicin], the MIC in [3] and in series [4] was under 0.2 µg/mL in each case.

Consider `COc1ccc(C(=O)/C=C/c2ccc3nccnc3c2)c(OC)c1OC` [N36], for which, in series [1] (setting [7]), the MIC turned out to be 25 µg/mL (≈ 71.4 µM).

Consider `NNC(=O)c1ccncc1` [INH, isoniazid, reference compound], for which the MIC was 0.39 µg/mL (≈ 2.84 µM) in series [1] (setting [7]); 0.39 µg/mL (≈ 2.84 µM) in series [2]; under 0.2 µg/mL in series [5]; under 0.2 µg/mL in series [6]; 0.31 µg/mL in the series with M. tuberculosis H37Rv (H37RV). For the same molecule, the “MIC Alone” value with M. tuberculosis H37Rv (H37RV) was 0.16 µg/mL.

As for `O=C(/C=C/c1ccc2nccnc2c1)c1ccc(Br)cc1` [N4], the MIC in [1] (setting [7]) is over 25 µg/mL.

On to `COc1cc(C(=O)/C=C/c2ccc3nccnc3c2)cc(OC)c1O` [N20], for which the MIC in series [1] (setting [7]) was over 25 µg/mL.

As for `O=C(/C=C/c1ccc2nccnc2c1)c1ccccc1O` [N6], the MIC in series [1] (setting [7]) is over 5 µg/mL.

For `N#Cc1ccc(C(=O)/C=C/c2ccc3nccnc3c2)cc1` [N33], the MIC in [1] (setting [7]) is over 25 µg/mL.

On to `Nc1ccc2cc3ccccc3cc2c1` [2-AA, 2-aminoanthracene, reference compound], for which the “MI: mutagenic index” value in the series on S. typhimurium TA100 (setting [10]) is reported as 11.03; with S. typhimurium TA1535 (setting [11]), 6.96; in the series with S. typhimurium TA102, 3.62; in the series with S. typhimurium TA97a, 6.44; with S. typhimurium TA98, 39.65. The Number of revertants/plate stood at 1279.0±50.2 Rev/plate in the series on S. typhimurium TA100 (setting [10]); 58.0±12.7 Rev/plate in the series with S. typhimurium TA1535 (setting [11]); 1354.0±21.1 Rev/plate in the series on S. typhimurium TA102; 742.0±59.4 Rev/plate in the series on S. typhimurium TA97a; 1586.0±161.2 Rev/plate in the series with S. typhimurium TA98.

Turning to `O=C(/C=C/c1ccc2nccnc2c1)c1ccc2c(c1)OCO2` [N3], the MIC in [1] (setting [7]) is over 25 µg/mL.

Consider `COc1c(N2C[C@@H]3CCCN[C@@H]3C2)c(F)cc2c(=O)c(C(=O)O)cn(C3CC3)c12` [MFX, moxifloxacin, reference compound], for which the values for the MIC (in the series with M. tuberculosis H37Rv (H37RV); in series [3]) were 0.15 µg/mL and under 0.2 µg/mL, respectively. Further, the “Improvement of MIC of MFX in the presence of N9” value in the series with M. tuberculosis H37Rv (all three experiments) came to 4 fold.

`COc1ccccc1C(=O)/C=C/c1ccc2nccnc2c1` [N19]: the MIC in series [1] (setting [7]) was over 25 µg/mL.

`O=C(/C=C/c1ccc2nccnc2c1)c1ccc([N+](=O)[O-])cc1` [N7]: the MIC in series [1] (setting [7]) was over 25 µg/mL.
